Tested on: Unknown protein yeast genes
Experiment: DNA chip mRNA expression in yeast, unknown protein yeast genes (Table 1)
Assay type: cell-based, Saccharomyces cerevisiae S288C
How it was run: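 Untreated cultures served as reference for log-phase S288C yeast given a growth-inhibiting, non-lethal toxicant dose for 2 h at 25° C. in YPD. Gene expression was measured on a whole-genome DNA chip from Cy3/Cy5-labeled cDNA.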

For `[Cl][Pb][Cl]` [(4), PbCl2], the “The level of expressed mRNA in the presence of chemical substance/The level of expressed mRNA in the absence of chemical substance” value (yeast gene YKL195W, incubated two hours with chemical substance) was 1.1, the “The level of expressed mRNA in the presence of chemical substance/The level of expressed mRNA in the absence of chemical substance” value (yeast gene YKR091W, incubated two hours with chemical substance) was 3.5 and the “The level of expressed mRNA in the presence of chemical substance/The level of expressed mRNA in the absence of chemical substance” value (yeast gene YLR054C, incubated two hours with chemical substance) was 2.4. The “The level of expressed mRNA in the presence of chemical substance/The level of expressed mRNA in the absence of chemical substance” value (yeast gene YLR149C, incubated two hours with chemical substance) was 2.3, the “The level of expressed mRNA in the presence of chemical substance/The level of expressed mRNA in the absence of chemical substance” value (yeast gene YLR152C, incubated two hours with chemical substance) was 0.9 and the “The level of expressed mRNA in the presence of chemical substance/The level of expressed mRNA in the absence of chemical substance” value (yeast gene YLR194C, incubated two hours with chemical substance) was 3.6. The “The level of expressed mRNA in the presence of chemical substance/The level of expressed mRNA in the absence of chemical substance” value (yeast gene YLR324W, incubated two hours with chemical substance) was 1.0, the “The level of expressed mRNA in the presence of chemical substance/The level of expressed mRNA in the absence of chemical substance” value (yeast gene YLR350W, incubated two hours with chemical substance) was 2.3 and the “The level of expressed mRNA in the presence of chemical substance/The level of expressed mRNA in the absence of chemical substance” value (yeast gene YLR387C, incubated two hours with chemical substance) was 0.6. For the same compound, the “The level of expressed mRNA in the presence of chemical substance/The level of expressed mRNA in the absence of chemical substance” value (yeast gene YLR460C) was 1.1, the “The level of expressed mRNA in the presence of chemical substance/The level of expressed mRNA in the absence of chemical substance” value (yeast gene YML117W, incubated two hours with chemical substance) was 1.6 and the “The level of expressed mRNA in the presence of chemical substance/The level of expressed mRNA in the absence of chemical substance” value (yeast gene YMR009W, incubated two hours with chemical substance) was 1.9. For the same compound, the “The level of expressed mRNA in the presence of chemical substance/The level of expressed mRNA in the absence of chemical substance” value (yeast gene YMR067C, incubated two hours with chemical substance) was 0.4, the “The level of expressed mRNA in the presence of chemical substance/The level of expressed mRNA in the absence of chemical substance” value (yeast gene YMR090W) was 3.5 and the “The level of expressed mRNA in the presence of chemical substance/The level of expressed mRNA in the absence of chemical substance” value (yeast gene YMR095C, incubated two hours with chemical substance) was 1.0. The “The level of expressed mRNA in the presence of chemical substance/The level of expressed mRNA in the absence of chemical substance” value (yeast gene YMR097C, incubated two hours with chemical substance) was 1.6, the “The level of expressed mRNA in the presence of chemical substance/The level of expressed mRNA in the absence of chemical substance” value (yeast gene YMR102C, incubated two hours with chemical substance) was 0.8 and the “The level of expressed mRNA in the presence of chemical substance/The level of expressed mRNA in the absence of chemical substance” value (yeast gene YMR107W, incubated two hours with chemical substance) was 18.4. For the same compound, the “The level of expressed mRNA in the presence of chemical substance/The level of expressed mRNA in the absence of chemical substance” value (yeast gene YMR180C, incubated two hours with chemical substance) was 1.3, the “The level of expressed mRNA in the presence of chemical substance/The level of expressed mRNA in the absence of chemical substance” value (yeast gene YMR184W, incubated two hours with chemical substance) was 1.1 and the “The level of expressed mRNA in the presence of chemical substance/The level of expressed mRNA in the absence of chemical substance” value (yeast gene YMR191W, incubated two hours with chemical substance) was 1.6. The “The level of expressed mRNA in the presence of chemical substance/The level of expressed mRNA in the absence of chemical substance” value (yeast gene YMR295C, incubated two hours with chemical substance) was 1.6, the “The level of expressed mRNA in the presence of chemical substance/The level of expressed mRNA in the absence of chemical substance” value (yeast gene YMR316W, incubated two hours with chemical substance) was 1.9 and the “The level of expressed mRNA in the presence of chemical substance/The level of expressed mRNA in the absence of chemical substance” value (yeast gene YNL044W, incubated two hours with chemical substance) was 1.3. For the same compound, the “The level of expressed mRNA in the presence of chemical substance/The level of expressed mRNA in the absence of chemical substance” value (yeast gene YNL074C, incubated two hours with chemical substance) was 1.2, the “The level of expressed mRNA in the presence of chemical substance/The level of expressed mRNA in the absence of chemical substance” value (yeast gene YNL092W, incubated two hours with chemical substance) was 1.8 and the “The level of expressed mRNA in the presence of chemical substance/The level of expressed mRNA in the absence of chemical substance” value (yeast gene YNL115C, incubated two hours with chemical substance) was 1.4. For the same compound, the “The level of expressed mRNA in the presence of chemical substance/The level of expressed mRNA in the absence of chemical substance” value (yeast gene YNL156C, incubated two hours with chemical substance) was 1.3, the “The level of expressed mRNA in the presence of chemical substance/The level of expressed mRNA in the absence of chemical substance” value (yeast gene YNL234W, incubated two hours with chemical substance) was 1.8 and the “The level of expressed mRNA in the presence of chemical substance/The level of expressed mRNA in the absence of chemical substance” value (yeast gene YNL281W, incubated two hours with chemical substance) was 1.4. The “The level of expressed mRNA in the presence of chemical substance/The level of expressed mRNA in the absence of chemical substance” value (yeast gene YNL305C, incubated two hours with chemical substance) was 1.4, the “The level of expressed mRNA in the presence of chemical substance/The level of expressed mRNA in the absence of chemical substance” value (yeast gene YNR068C, incubated two hours with chemical substance) was 2.6 and the “The level of expressed mRNA in the presence of chemical substance/The level of expressed mRNA in the absence of chemical substance” value (yeast gene YOL032W, incubated two hours with chemical substance) was 1.3. For the same compound, the “The level of expressed mRNA in the presence of chemical substance/The level of expressed mRNA in the absence of chemical substance” value (yeast gene YOL036W, incubated two hours with chemical substance) was 0.8, the “The level of expressed mRNA in the presence of chemical substance/The level of expressed mRNA in the absence of chemical substance” value (yeast gene YOL047C, incubated two hours with chemical substance) was 2.5 and the “The level of expressed mRNA in the presence of chemical substance/The level of expressed mRNA in the absence of chemical substance” value (yeast gene YOL071W, incubated two hours with chemical substance) was 2.0. The “The level of expressed mRNA in the presence of chemical substance/The level of expressed mRNA in the absence of chemical substance” value (yeast gene YOL082W, incubated two hours with chemical substance) was 2.1, the “The level of expressed mRNA in the presence of chemical substance/The level of expressed mRNA in the absence of chemical substance” value (yeast gene YOL083W, incubated two hours with chemical substance) was 2.8 and the “The level of expressed mRNA in the presence of chemical substance/The level of expressed mRNA in the absence of chemical substance” value (yeast gene YOL117W, incubated two hours with chemical substance) was 1.4. The “The level of expressed mRNA in the presence of chemical substance/The level of expressed mRNA in the absence of chemical substance” value (yeast gene YOL131W, incubated two hours with chemical substance) was 1.0, the “The level of expressed mRNA in the presence of chemical substance/The level of expressed mRNA in the absence of chemical substance” value (yeast gene YOL150C) was 0.9 and the “The level of expressed mRNA in the presence of chemical substance/The level of expressed mRNA in the absence of chemical substance” value (yeast gene YOL162W, incubated two hours with chemical substance) was 1.4. For the same compound, the “The level of expressed mRNA in the presence of chemical substance/The level of expressed mRNA in the absence of chemical substance” value (yeast gene YOR019W, incubated two hours with chemical substance) was 4.7, the “The level of expressed mRNA in the presence of chemical substance/The level of expressed mRNA in the absence of chemical substance” value (yeast gene YOR197W, incubated two hours with chemical substance) was 1.4 and the “The level of expressed mRNA in the presence of chemical substance/The level of expressed mRNA in the absence of chemical substance” value (yeast gene YPL087W, incubated two hours with chemical substance) was 7.3. For the same compound, the “The level of expressed mRNA in the presence of chemical substance/The level of expressed mRNA in the absence of chemical substance” value (yeast gene YPL196W, incubated two hours with chemical substance) was 1.7, the “The level of expressed mRNA in the presence of chemical substance/The level of expressed mRNA in the absence of chemical substance” value (yeast gene YPL206C, incubated two hours with chemical substance) was 1.9 and the “The level of expressed mRNA in the presence of chemical substance/The level of expressed mRNA in the absence of chemical substance” value (yeast gene YPL222W, incubated two hours with chemical substance) was 1.3. For the same compound, the “The level of expressed mRNA in the presence of chemical substance/The level of expressed mRNA in the absence of chemical substance” value (yeast gene YPR023C, incubated two hours with chemical substance) was 0.8 and the “The level of expressed mRNA in the presence of chemical substance/The level of expressed mRNA in the absence of chemical substance” value (yeast gene YPR151C, incubated two hours with chemical substance) was 4.1.
